# Measurements as given in patent US10894772B2, “Flavor modulator having pyridine derivative or salt thereof as active ingredient” (T. HASEGAWA CO., LTD., priority 2015, dated 2021).
# Experiments:
# Type in all cases: in vivo
# panelists [1] = experiment: Confirmation of umami in water (point score); conditions: average point of 10 panelists, 0 no difference from control (water), 1 somewhat stronger, 2 stronger, 3 considerably stronger, 4 poor taste balance
# Experimental: As a comparative product, a solution was prepared by dissolving the comparative product 1 (2-(2-benzyloxyethyl)pyridine) to have the same concentration. Water with no addition was prepared as a control product. Well-trained 10 panelists tasted the solutions prepared by dissolving any the invention products 1 to 6 and the comparative product 1 for organoleptic evaluation of umami.
# Umami evaluation was based on the control product of water.
# panelists [2] = experiment: Confirmation of umami imparting and saltiness enhancing effect in 0.3 mass % sodium chloride (evaluation in words); conditions: average of 5 panelists, Example 108
# Experimental: An aqueous 0.3 mass % sodium chloride solution (control), and solutions of 2-(3-benzyloxypropyl)pyridine dissolved in a 0.3 mass % sodium chloride solution to have the concentration shown in Table 17 were prepared. As comparative products, an aqueous 0.3 mass % sodium chloride solution (control), and a solution of a comparative product, 2-(2-benzyloxyethyl)pyridine dissolved in a 0.3 mass % sodium chloride solution to have the same concentration were prepared. Well-trained 5 panelists tasted the solutions for organoleptic evaluation of umami impartment and saltiness enhancement.
# An aqueous 0.3 mass % sodium chloride solution (control), and solutions of the invention product 201 or the reference product 202 dissolved in a 0.3 mass % sodium chloride solution to have the concentration as 2-(3-benzyloxypropyl)pyridine therein shown in the following Table 23 were prepared. Well-trained 5 panelists tasted the solutions for organoleptic evaluation of umami impartment and saltiness enhancement.
# panelists [3] = experiment: Confirmation of umami imparting and saltiness enhancing effect in 0.3 mass % sodium chloride (point score); conditions: average point of 10 panelists vs control, 0 no change, 1 slightly higher, 2 higher, 3 considerably higher, 4 extremely higher umami and saltiness, 5 bitter as lacking balance
# Experimental: An aqueous 0.3 mass % sodium chloride solution (control), and solutions of the invention products 1 to 6 each dissolved in a 0.3 mass % sodium chloride solution to have the concentration shown in Table 5 were prepared. As a comparative product, a solution was prepared by dissolving the comparative product 1 in 0.3 mass % sodium chloride. Well-trained 10 panelists tasted the solutions for organoleptic evaluation of umami impartment and saltiness enhancement.
# Umami and saltiness scores are as follows, based on the aqueous 0.3 mass % sodium chloride solution as a control. Each sample was given any of a point 0, no change from control; 1, slightly higher umami and saltiness than control; 2, higher umami and saltiness than control; 3, considerably higher umami and saltiness than control; 4, extremely higher umami and saltiness than control; and 5, bitter as lacking balance of umami and saltiness.
# panelists [4] = experiment: Confirmation of umami in water (organoleptic evaluation of taste and flavor in words); conditions: average of 5 panelists
# Experimental: A solution was prepared by dissolving 2-(3-benzyloxypropyl)pyridine (invention product 101) in water to have a concentration shown in Table 15. As a comparative product, a solution was prepared by dissolving 2-(2-benzyloxyethyl)pyridine (comparative product 1 prepared in Comparative Example 1) to have the same concentration. Well-trained 5 panelists tasted the solutions and non-added water for organoleptic evaluation of taste and flavor.
# The invention product 101 and the comparative product 1 were individually diluted with ethanol to have a proper concentration, and then further diluted with water to prepare an aqueous solution of 2-(3-benzyloxypropyl)pyridine (invention product 101 produced in Example 101) and that of 2-(2-benzyloxyethyl)pyridine (comparative product synthesized in Comparative Example 1) each having a concentration shown in the following Table 21. Well-trained panelists tasted the solution having a different concentration and non-added water for organoleptic evaluation in point of taste and flavor. […]
compound,measurement,setting,value
"c1ccc(COCCc2ccccn2)cc1 [comparative product 1, 2-(2-benzyloxyethyl)pyridine, reference compound]",umami (average point),panelists [1]; 0.1 ppm in water,0.8
same,umami (average point),panelists [1]; 1 ppm in water,1.5
same,umami (average point),panelists [1]; 2 ppb in water,0.0
same,umami (average point),panelists [1]; 10 ppb in water,0.1
same,umami (average point),panelists [1]; 20 ppm in water,2.2
same,umami (average point),panelists [1]; 200 ppm in water,2.8
same,umami (average point),panelists [1]; 500 ppm in water,3.3
same,umami (average point),panelists [1]; 2000 ppm in water,3.8
same,Organoleptic Evaluation (umami impartment and saltiness enhancement),panelists [2]; 0.1 ppm in 0.3 mass % sodium chloride solution,Umami as compared with control.
same,Organoleptic Evaluation (umami impartment and saltiness enhancement),panelists [2]; 10 ppb in 0.3 mass % sodium chloride solution,Slightly umami as compared with control.
same,umami and saltiness (average point),panelists [3]; 0.05 ppb in aqueous 0.3 mass % sodium chloride solution,0.0
same,umami and saltiness (average point),panelists [3]; 0.1 ppb in aqueous 0.3 mass % sodium chloride solution,0.0
same,umami and saltiness (average point),panelists [3]; 0.1 ppm in aqueous 0.3 mass % sodium chloride solution,2.1
same,umami and saltiness (average point),panelists [3]; 0.5 ppm in aqueous 0.3 mass % sodium chloride solution,3.0
same,umami and saltiness (average point),panelists [3]; 1 ppb in aqueous 0.3 mass % sodium chloride solution,0.6
same,umami and saltiness (average point),panelists [3]; 2 ppm in aqueous 0.3 mass % sodium chloride solution,3.4
same,umami and saltiness (average point),panelists [3]; 10 ppb in aqueous 0.3 mass % sodium chloride solution,1.5
same,umami and saltiness (average point),panelists [3]; 10 ppm in aqueous 0.3 mass % sodium chloride solution,4.2
same,umami and saltiness (average point),panelists [3]; 50 ppm in aqueous 0.3 mass % sodium chloride solution,4.8
same,Organoleptic Evaluation Taste,"panelists [4]; 0.1 ppm dissolved in water, Example 107",Slightly umami.
same,Organoleptic Evaluation Taste,"panelists [4]; 0.1 ppm, diluted with ethanol, then with water, Reference Example 201",Slightly umami.
same,Organoleptic Evaluation Taste,"panelists [4]; 1 ppm dissolved in water, Example 107",Weakly umami.
same,Organoleptic Evaluation Taste,"panelists [4]; 1 ppm, diluted with ethanol, then with water, Reference Example 201",Weakly umami.
same,Organoleptic Evaluation Flavor,"panelists [4]; 2 ppb dissolved in water, Example 107",Nothing at all.
same,Organoleptic Evaluation Flavor,"panelists [4]; 2 ppb, diluted with ethanol, then with water, Reference Example 201",Nothing at all.
same,Organoleptic Evaluation Flavor,"panelists [4]; 10 ppb dissolved in water, Example 107",Nothing at all.
same,Organoleptic Evaluation Flavor,"panelists [4]; 10 ppb, diluted with ethanol, then with water, Reference Example 201",Nothing at all.
same,Organoleptic Evaluation Taste,"panelists [4]; 200 ppm dissolved in water, Example 107",Strongly umami.
same,Organoleptic Evaluation Taste,"panelists [4]; 200 ppm, diluted with ethanol, then with water, Reference Example 201",Strongly umami.
